# Data from ChEMBL document CHEMBL3832761, “MMV Pathogen Box Bioactivity Data” (2017).
# Columns and labels:
# Onchocerca gutturosa [1] = experiment: AntiOnchocerca activity O. gutturosa adult males: Motility reduction at 12.5 uM (%); assay type: functional; parameters: scale not given: the % may be the effect or the level left
# Onchocerca gutturosa [2] = experiment: AntiOnchocerca activity O. gutturosa adult males: MTT reduction at 12.5 uM (%); assay type: functional; parameters: scale not given: the % may be the effect or the level left
# Onchocerca gutturosa [3] = experiment: AntiOnchocerca activity O. gutturosa adult males: EC50 (uM); assay type: functional, organism-based
# Onchocerca lienalis [4] = experiment: AntiOnchocerca activity O. lienalis microfilariae Motility reduction (%); assay type: functional; parameters: concentration or dose not given beside the values
# HepG2 [5] = experiment: Cytotoxicity data HepG2 CC20 (uM); assay type: functional
# Brugia pahangi [6] = experiment: AntiBrugia pahangi activity Average inhibition motility at 10 uM (%); assay type: functional
# Brugia pahangi [7] = experiment: AntiBrugia pahangi activity Average day 3 IC50 (uM); assay type: functional, organism-based; conditions: 72 h
# Onchocerca ochengi [8] = experiment: AntiOnchocerca activity O. ochengi adult females: final mean inhibition motility at 10 uM on Day 7 (%); assay type: functional
# Onchocerca ochengi [9] = experiment: AntiOnchocerca activity O. ochengi adult males: final mean inhibition motility at 10 uM on Day 5 (%); assay type: functional
# Onchocerca volvulus [10] = experiment: AntiOnchocerca activity O. volvulus L3 Molting assay: inhibition at 10 uM (%); assay type: functional
# Onchocerca volvulus [11] = experiment: AntiOnchocerca activity O. volvulus L3 Molting assay: IC50 (uM); assay type: functional, organism-based
# [12] = HL60 CC50 (uM) Cytotoxicity; assay type: functional; conditions: HL-60
# Wolbachia = experiment: Anti-Wolbachia activity Reduction in Wolbachia infected cells at 10 uM (%); assay type: functional, cell-based; parameters: Activity: scale not given: the % may be the effect or the level left
# Brugia malayi = experiment: AntiBrugia malayi activity Effect on motility; assay type: functional, organism-based
# Dengue virus [13] = experiment: AntiDengue activity HCI DV1/A549 IC50 (uM); assay type: functional, organism-based
# Dengue virus [14] = experiment: AntiDengue activity HCI DV2/A549 IC50 (uM); assay type: functional, organism-based
# Dengue virus [15] = experiment: AntiDengue activity HCI DV2/Huh7 IC50 (uM); assay type: functional, organism-based; conditions: Huh-7
# Dengue virus [16] = experiment: AntiDengue activity HCI DV3/A549 IC50 (uM); assay type: functional, organism-based
# Dengue virus [17] = experiment: AntiDengue activity HCI DV4/A549 IC50 (uM); assay type: functional, organism-based
# [18] = AntiChikungunya activity HCI CHIKV/Huh7 IC50 (uM); assay type: functional, Chikungunya virus
# A549 = experiment: A549 CC50 (uM) Cytotoxicity; assay type: functional; conditions: Homo sapiens
# HepG2 [19] = experiment: HepG2 CC50 (uM) Cytotoxicity; assay type: functional; conditions: Homo sapiens
# [20] = HUH7 CC50 (uM) Cytotoxicity; assay type: functional; conditions: Huh-7
# Onchocerca lienalis [21] = experiment: AntiOnchocerca activity O. lienalis microfilariae EC50 (uM); assay type: functional, organism-based
# Toxoplasma gondii [22] = experiment: AntiToxoplasma gondii activity data Inhibition of plaque forming efficiency (%) Experiment A; assay type: functional; parameters: concentration or dose not given beside the values
# Toxoplasma gondii [23] = experiment: AntiToxoplasma gondii activity data 2-day killing assay: inhibition at 10 uM (%) Experiment C; assay type: functional; conditions: 48 h
# Toxoplasma gondii [24] = experiment: AntiToxoplasma gondii activity data 2-day killing assay: inhibition at 10 uM (%) Experiment D; assay type: functional
# Toxoplasma gondii [25] = experiment: AntiToxoplasma gondii activity data 2-day killing assay: inhibition at 10 uM (%) Experiment E; assay type: functional
# Toxoplasma gondii [26] = experiment: AntiToxoplasma gondii activity data 2-day killing assay: IC50 (uM), Experiment F; assay type: functional, organism-based; conditions: Toxoplasma gondii, 48 h; read-out: IC50
# Toxoplasma gondii [27] = experiment: AntiToxoplasma gondii activity data 2-day killing assay: IC50 (uM), Experiment G; assay type: functional, organism-based; conditions: Toxoplasma gondii, 48 h; read-out: IC50
# CHO = experiment: CHO CC50 (uM) Cytotoxicity; assay type: functional; conditions: Cricetulus griseus
# Ancylostoma ceylanicum [28] = experiment: microbe, parasite or virus in culture
# Ancylostoma ceylanicum [29] = experiment: microbe, parasite or virus in culture; remark: listed apart in the source
compound,measurement,setting,value
COC(=O)C1=C(C)NC(C)=C(C(=O)OC(C)C)C1c1cccc2nonc12 (stereo unspecified) [ISRADIPINE],Activity,Onchocerca gutturosa [1],100%
same,Activity,Onchocerca gutturosa [2],79%
same,EC50,Onchocerca gutturosa [3],0.89 µM
same,Activity,Onchocerca lienalis [4],53%
same,CC20,HepG2 [5],66 µM
CCCCc1ccc(NC(=O)Nc2ccc(O[C@H]3CCCC[C@@H]3N(C)c3ccccc3)c(F)c2)cc1,Inhibition,Brugia pahangi [6],61%
same,IC50,Brugia pahangi [7],8.4 µM
same,Activity,Onchocerca gutturosa [1],14.3%
same,Activity,Onchocerca gutturosa [2],0%
same,Activity,Onchocerca lienalis [4],33.3%
same,Inhibition,Onchocerca ochengi [8],57%
same,Inhibition,Onchocerca ochengi [9],61%
same,Inhibition,Onchocerca volvulus [10],100%
same,IC50,Onchocerca volvulus [11],1.09 µM
same,CC20,HepG2 [5],5.77 µM
same,CC50,[12],> 6.2 µM
COc1cccn2c(C(=O)N3CCCCC3)c(C(F)(F)F)nc12,IC50,Wolbachia; Wolbachia,0.5 µM
same,CC20,HepG2 [5],>80 µM
CCc1nc2ccc(C(=O)NCc3ccc4c(c3)OCO4)cn2c1N(C)Cc1cccs1,Activity,Wolbachia,45%
same,CC20,HepG2 [5],18.6 µM
O=C(Nc1nnc(S)s1)c1cc(Br)ccc1Cl,Inhibition,Brugia pahangi [6],69%
same,IC50,Brugia pahangi [7],9.4 µM
same,Activity,Onchocerca gutturosa [1],29%
same,Activity,Onchocerca gutturosa [2],0%
same,Activity,Onchocerca lienalis [4],27%
same,Inhibition,Onchocerca ochengi [8],4%
same,Inhibition,Onchocerca ochengi [9],0%
same,Inhibition,Onchocerca volvulus [10],36%
same,CC20,HepG2 [5],>80 µM
same,CC50,[12],> 50 µM
CCS(=O)(=O)N(Cc1ccco1)Cc1cc2ccc(C)cc2nc1O,Activity,Wolbachia,52%
same,CC20,HepG2 [5],>80 µM
COc1ccc(N(CCc2cccc(C)n2)C(=O)C2CCCCC2)cc1,Inhibition,Brugia pahangi [6],11%
same,Activity,Onchocerca gutturosa [1],42.9%
same,Activity,Onchocerca gutturosa [2],35.7%
same,Activity,Onchocerca lienalis [4],13%
same,Inhibition,Onchocerca ochengi [8],4%
same,Inhibition,Onchocerca ochengi [9],7%
same,Inhibition,Onchocerca volvulus [10],100%
same,IC50,Onchocerca volvulus [11],1.34 µM
same,CC20,HepG2 [5],>80 µM
same,CC50,[12],> 50 µM
CC1(C)OB(O)c2ccc(C3=NOC(c4cc(Cl)c(F)c(Cl)c4)(C(F)(F)F)C3)cc21 (stereo unspecified),Inhibition,Brugia malayi,50%
same,CC20,HepG2 [5],15.4 µM
CC(=O)N(CCN(C(=O)c1ccc(F)cc1)c1ccccc1)c1ccccc1,Inhibition,Brugia pahangi [6],4%
same,Activity,Onchocerca gutturosa [1],42.9%
same,Activity,Onchocerca gutturosa [2],0%
same,Activity,Onchocerca lienalis [4],13.3%
same,Inhibition,Onchocerca ochengi [8],4%
same,Inhibition,Onchocerca ochengi [9],0%
same,Inhibition,Onchocerca volvulus [10],100%
same,IC50,Onchocerca volvulus [11],3.13 µM
same,CC20,HepG2 [5],39 µM
same,CC50,[12],> 50 µM
OC[C@H]1O[C@@H](n2c3ccc(Cl)cc3c3c(-c4cc5ccccc5o4)ncnc32)C(O)[C@H]1O (stereo partly specified),IC50,Dengue virus [13],5 µM
same,IC50,Dengue virus [14],7 µM
same,IC50,Dengue virus [15],> 50 µM
same,IC50,Dengue virus [16],3 µM
same,IC50,Dengue virus [17],3 µM
same,IC50,[18],> 50 µM
same,CC50,A549,> 50 µM
same,CC50,HepG2 [19],10 µM
same,CC50,[20],1 µM
Cc1cc(C2=NOC(c3cc(Cl)c(F)c(Cl)c3)(C(F)(F)F)C2)ccc1C(=O)NCc1ccc2c(c1)C(C)(C)OB2O (stereo unspecified),IC50,Brugia malayi; Brugia malayi,3.04 µM
same,CC20,HepG2 [5],10.9 µM
Cc1[nH]c2cc(F)cc(F)c2c(=O)c1-c1ccc(Oc2ccc(OC(F)(F)F)cc2)cc1,Activity,Onchocerca gutturosa [1],58.9%
same,Activity,Onchocerca gutturosa [2],56.9%
same,EC50,Onchocerca gutturosa [3],2.91 µM
same,Activity,Onchocerca lienalis [4],100%
same,EC50,Onchocerca lienalis [21],1.37 µM
same,CC20,HepG2 [5],>80 µM
Oc1c(I)cc(I)c2cccnc12 [IODOQUINOL],Activity,Onchocerca gutturosa [1],100%
same,Activity,Onchocerca gutturosa [2],88%
same,EC50,Onchocerca gutturosa [3],0.46 µM
same,Activity,Onchocerca lienalis [4],93.3%
same,CC20,HepG2 [5],2.53 µM
Nc1ncnc2c1c(-c1cnc3ccccc3c1)nn2CC1CCNCC1,Inhibition,Toxoplasma gondii [22],~60%
same,inhibition at 10 µM,Toxoplasma gondii [23],48.8%
same,Inhibition,Toxoplasma gondii [24],72.3%
same,Inhibition,Toxoplasma gondii [25],92.8%
same,IC50,Toxoplasma gondii [26],6.77 µM
same,IC50,Toxoplasma gondii [27],7.55 µM
same,CC50,CHO,> 50 µM
CN1CCCC1CCO[C@](C)(c1ccccc1)c1ccc(Cl)cc1 (stereo partly specified),CC20,HepG2 [5],9.28 µM
same,inhibition at 200 µM,Ancylostoma ceylanicum [28],76%
same,inhibition at 50 µM,Ancylostoma ceylanicum [29],47%
